Each structure is given as a SMILES string. Converted amounts (≈) assume the structure as drawn.

By MIC90 is commonly meant the lowest concentration that inhibits either 90% of growth or 90% of the strains tested, depending on the study. A high value points to lower susceptibility. By MIC is commonly meant the lowest concentration that inhibits growth of the organism. Higher therefore signals weaker potency. Usually MIC50 stands for an inhibitory concentration at the 50% level, which refers to growth in some studies and to a panel of isolates in others. Read a low MIC50 as greater potency.

The test system of assay [1] is Streptococcus sp. As to the kind of experiment: Antibacterial activity against Streptococcus sp. by agar dilution method. In kind it is functional.
Assay [2] has as its system Streptococcus pneumoniae. As to the kind of experiment: Antibacterial activity against penicillin-, macrolide- and quinolone-susceptible Streptococcus pneumoniae HMC 63 after 50 passages by broth microdilution method. In kind it is functional. Background: Dilution methods test growth across graded concentrations, often in twofold steps.
Assay [3] deals with Streptococcus pneumoniae. In words: Antibacterial activity against Streptococcus pneumoniae HMC 1060 harboring S81F mutation in quinolone-resistant determining regions of GyrA gene, S79F, K137N mutation in QRDR of ParC gene and I460V mutation in QRDR of ParE gene by agar dilution method. In kind it is functional. (In agar dilution the substance is mixed into plates at graded concentrations.)

Assay [4] has as its system Streptococcus pneumoniae. In words: Antibacterial activity against penicillin-susceptible Streptococcus pneumoniae ATCC 49619 by agar dilution method. In kind it is functional.
Assay [5] deals with Streptococcus pneumoniae. In words: Antibacterial activity against penicillin-resistant and quinolone-susceptible Streptococcus pneumoniae HMC 3583 expressing mefA and harboring I460V mutation in QRDR of ParE gene after 41 passages with gemifloxacin measured after 10 daily antibiotic-free subculturing by multi-step resistance selection technique. In kind it is functional.
Assay [6] relates to Streptococcus pneumoniae. As to the kind of experiment: Antibacterial activity against Streptococcus pneumoniae HMC 2536 harboring S81Y mutation in quinolone-resistant determining regions of GyrA gene, S79F, K137N mutation in QRDR of ParC gene and I460V mutation in QRDR of ParE gene by agar dilution method. In kind it is functional.
Assay [7] deals with Streptococcus pneumoniae. In words: Antibacterial activity against penicillin-resistant and quinolone-susceptible Streptococcus pneumoniae HMC 228 expressing ermB after 38 passages by broth microdilution method. In kind it is functional.
For assay [8], the system named is Streptococcus pneumoniae. In words: Antibacterial activity against macrolide-, quinolone-susceptible and penicillin-intermediate Streptococcus pneumoniae HMC 100 harboring S81Y mutation in quinolone-resistant determining regions of GyrA gene after 22 passages with moxifloxacin measured after 10 daily antibiotic-free subculturing by multi-step resistance selection technique. In kind it is functional.

The test system of assay [9] is Streptococcus pneumoniae. In words: Antibacterial activity against penicillin-resistant and quinolone-susceptible Streptococcus pneumoniae HMC 228 expressing ermB and harboring S81F mutation in quinolone-resistant determining regions of GyrA gene, S79Y mutation in QRDR of ParC gene and I460V mutation in QRDR of ParE gene after 38 passages with gatifloxacin measured after 10 daily antibiotic-free subculturing by multi-step resistance selection technique. In kind it is functional.

For assay [10], the system named is Streptococcus pneumoniae. As to the kind of experiment: Antibacterial activity against penicillin-resistant and quinolone-susceptible Streptococcus pneumoniae HMC 3583 expressing mefA after 49 passages by broth microdilution method. In kind it is functional.
The subject of assay [11] is Streptococcus sp. As to the kind of experiment: Antibacterial activity against levofloxacin-intermediate -resistant Streptococcus sp. by agar dilution method. In kind it is functional.
The test system of assay [12] is Streptococcus pneumoniae. As to the kind of experiment: Antibacterial activity against penicillin-, quinolone-resistant and macrolide-susceptible Streptococcus pneumoniae HMC 1058 harboring S79F, K137N mutation in quinolone-resistant determining regions of ParC gene and 460V mutation in QRDR of ParE gene by broth microdilution method. In kind it is functional.
Assay [13] deals with Streptococcus pneumoniae. In words: Antibacterial activity against Streptococcus pneumoniae HMC 1151 harboring D83N, K137N mutation in quinolone-resistant determining regions of ParC gene and I460V mutation in QRDR of ParE gene showing efflux to ciprofloxacin, gemifloxacin by agar dilution method. In kind it is functional.
Assay [14] concerns Streptococcus pneumoniae. In words: Antibacterial activity against quinolone-susceptible and penicillin-intermediate Streptococcus pneumoniae HMC 5048 expressing mefA after 50 passages by broth microdilution method. In kind it is functional.
The subject of assay [15] is Streptococcus pneumoniae. In words: Antibacterial activity against penicillin-resistant and quinolone-susceptible Streptococcus pneumoniae HMC 228 expressing ermB after 50 passages by broth microdilution method. In kind it is functional.
Assay [16] concerns Streptococcus pneumoniae. In words: Antibacterial activity against Streptococcus pneumoniae HMC 4026 harboring S81Y mutation in quinolone-resistant determining regions of GyrA gene, S79F, K137N mutation in QRDR of ParC gene and I460V mutation in QRDR of ParE gene by agar dilution method. In kind it is functional.
Assay [17] deals with Streptococcus pneumoniae. In words: Antibacterial activity against Streptococcus pneumoniae HMC 1078 harboring S81F mutation in quinolone-resistant determining regions of GyrA gene, S79F mutation in QRDR of ParC gene and I460V mutation in QRDR of ParE gene by agar dilution method. In kind it is functional.
Assay [18] relates to Streptococcus pneumoniae. In words: Antibacterial activity against Streptococcus pneumoniae HMC 1149 harboring S81F and S79Y mutation in quinolone-resistant determining regions of GyrA and ParC genes respectively showing efflux to ciprofloxacin, gemifloxacin by agar dilution method. In kind it is functional.
Assay [19] deals with Streptococcus pneumoniae. As to the kind of experiment: Antibacterial activity against penicillin-resistant and quinolone-susceptible Streptococcus pneumoniae HMC 228 expressing ermB after 28 passages by broth microdilution method. In kind it is functional.
Assay [20] relates to Streptococcus pneumoniae. In words: Antibacterial activity against penicillin-resistant and quinolone-susceptible Streptococcus pneumoniae HMC 3583 expressing mefA after 46 passages by broth microdilution method. In kind it is functional.
For assay [21], the system named is Streptococcus pneumoniae. In words: Antibacterial activity against macrolide-, quinolone-susceptible and penicillin-intermediate Streptococcus pneumoniae HMC 100 after 42 passages by broth microdilution method. In kind it is functional.
The test system of assay [22] is Streptococcus pneumoniae. In words: Antibacterial activity against penicillin-resistant and quinolone-susceptible Streptococcus pneumoniae HMC 3583 expressing mefA after 41 passages by broth microdilution method. In kind it is functional.
Assay [23] deals with Streptococcus pneumoniae. As to the kind of experiment: Antibacterial activity against penicillin-, macrolide- and quinolone-susceptible Streptococcus pneumoniae HMC 63 after 34 passages by broth microdilution method. In kind it is functional.
In assay [24] the test system is Streptococcus pneumoniae. As to the kind of experiment: Antibacterial activity against penicillin-, macrolide-susceptible and quinolone-resistant Streptococcus pneumoniae HMC 1074 harboring S81F mutation in quinolone-resistant determining regions of GyrA gene, S79F mutation in QRDR of ParC gene and I460V mutation in QRDR of ParE gene after 27 passages by broth microdilution method. In kind it is functional.

The test system of assay [25] is Streptococcus pneumoniae. As to the kind of experiment: Antibacterial activity against macrolide-, quinolone-susceptible and penicillin-intermediate Streptococcus pneumoniae HMC 99 after 41 passages by broth microdilution method.
For assay [26], the system named is Streptococcus pneumoniae. As to the kind of experiment: Antibacterial activity against macrolide-, quinolone-susceptible and penicillin-intermediate Streptococcus pneumoniae HMC 100 after 22 passages by broth microdilution method. In kind it is functional.
Assay [27] relates to Streptococcus pneumoniae. In words: Antibacterial activity against penicillin-resistant and quinolone-susceptible Streptococcus pneumoniae HMC 228 expressing ermB after 36 passages by broth microdilution method. In kind it is functional.

In the case of `COc1c(N2CC3(CC3)[C@](C)(N)C2)c(F)cc2c(=O)c(C(=O)O)cn([C@@H]3C[C@@H]3F)c12.O`, the MIC90 in [1] amounted to 0.125 µg/mL; in assay [4] it was 0.25 µg/mL; in assay [11], 1 µg/mL. In addition, the MIC in assay [2] is 0.125 µg/mL; in [3], 0.5 µg/mL; in assay [5] it was 1 µg/mL; in assay [6] it was 1 µg/mL; in [7], 1 µg/mL; in assay [8], 0.5 µg/mL. Moreover, the MIC stood at 1 µg/mL in assay [9]; 1 µg/mL in [10]; 0.5 µg/mL in assay [12]; 0.25 µg/mL in assay [13]; 0.125 µg/mL in [14]; 1 µg/mL in assay [15]. The MIC in assay [16] was 1 µg/mL; in assay [17], 1 µg/mL; in [18], 0.25 µg/mL. Moreover, in [4], the MIC50 came to 0.12 µg/mL.
As for `CC[C@H]1OC(=O)[C@H](C)[C@@H](O[C@H]2C[C@@](C)(OC)[C@@H](O)[C@H](C)O2)[C@H](C)[C@@H](O[C@@H]2O[C@H](C)C[C@H](N(C)C)[C@H]2O)[C@](C)(O)C[C@@H](C)CN(C)[C@H](C)[C@@H](O)[C@]1(C)O` [AZITHROMYCIN], the minimum inhibitory concentration (MIC) in assay [2] turned out to be 0.06 µg/mL (≈ 0.0801 µM); in assay [5], 0.25 µg/mL (≈ 0.334 µM); in [8], 0.03 µg/mL (≈ 0.0401 µM); in assay [9] it was 2 µg/mL (≈ 2.67 µM); in [12] it was 0.06 µg/mL (≈ 0.0801 µM); in assay [14] it was 8 µg/mL (≈ 10.7 µM). Besides, the MIC50 in assay [4] turned out to be 0.12 µg/mL (≈ 0.16 µM). In assay [4], this molecule returned an MIC90 of over 64 µg/mL.
Turning to `COc1c(N2CCNC(C)C2)c(F)cc2c(=O)c(C(=O)O)cn(C3CC3)c12` (stereo unspecified) [GATIFLOXACIN], the MIC in assay [2] worked out at 1 µg/mL (≈ 2.66 µM); in assay [3], 4 µg/mL (≈ 10.7 µM); in [19], 4 µg/mL (≈ 10.7 µM); in assay [5] it was 2 µg/mL (≈ 5.33 µM); in assay [6], 16 µg/mL (≈ 42.6 µM); in assay [8], 4 µg/mL (≈ 10.7 µM). Also, the MIC worked out at 4 µg/mL (≈ 10.7 µM) in [9]; 4 µg/mL (≈ 10.7 µM) in assay [12]; 4 µg/mL (≈ 10.7 µM) in [20]; 2 µg/mL (≈ 5.33 µM) in assay [13]; 0.5 µg/mL (≈ 1.33 µM) in assay [14]; 16 µg/mL (≈ 42.6 µM) in assay [16]. For the same molecule, the results for the MIC in assay [17] and in [18] were 8 µg/mL (≈ 21.3 µM) and 1 µg/mL (≈ 2.66 µM), respectively. For the same molecule, the MIC50 in assay [4] was 0.5 µg/mL (≈ 1.33 µM). Further, the MIC90 in assay [4] stood at 1 µg/mL (≈ 2.66 µM).
Turning to `CO/N=C1\CN(c2nc3c(cc2F)c(=O)c(C(=O)O)cn3C2CC2)CC1CN` (stereo unspecified) [GEMIFLOXACIN], the MIC was 1 µg/mL (≈ 2.57 µM) in [21]; 0.25 µg/mL (≈ 0.642 µM) in assay [22]; 0.25 µg/mL (≈ 0.642 µM) in assay [3]; 2 µg/mL (≈ 5.14 µM) in [5]; 0.125 µg/mL (≈ 0.321 µM) in assay [6]; 0.25 µg/mL (≈ 0.642 µM) in assay [8]. Further, the MIC is over 64 µg/mL in assay [9]; 0.5 µg/mL (≈ 1.28 µM) in assay [23]; 4 µg/mL (≈ 10.3 µM) in assay [24]; 0.12 µg/mL (≈ 0.308 µM) in assay [12]; 0.25 µg/mL (≈ 0.642 µM) in assay [13]; 0.125 µg/mL (≈ 0.321 µM) in assay [14]. The MIC is 0.25 µg/mL (≈ 0.642 µM) in [15], 0.5 µg/mL (≈ 1.28 µM) in [16], 0.5 µg/mL (≈ 1.28 µM) in assay [17] and 0.25 µg/mL (≈ 0.642 µM) in assay [18]. In assay [4], this molecule returned an MIC50 of 0.03 µg/mL (≈ 0.077 µM). Further, the MIC90 in assay [4] was 0.12 µg/mL (≈ 0.308 µM).
Regarding `COc1c(N2C[C@@H]3CCCN[C@@H]3C2)c(F)cc2c(=O)c(C(=O)O)cn(C3CC3)c12` [MOXIFLOXACIN], the MIC was found to be 4 µg/mL (≈ 9.96 µM) in [25]; 2 µg/mL (≈ 4.98 µM) in assay [26]; 0.25 µg/mL (≈ 0.623 µM) in assay [2]; 2 µg/mL (≈ 4.98 µM) in [3]; 0.5 µg/mL (≈ 1.25 µM) in assay [5]; 4 µg/mL (≈ 9.96 µM) in assay [6]. For the same molecule, the MIC was found to be 1 µg/mL (≈ 2.49 µM) in assay [8]; 4 µg/mL (≈ 9.96 µM) in assay [9]; 2 µg/mL (≈ 4.98 µM) in assay [12]; 0.25 µg/mL (≈ 0.623 µM) in assay [13]; 0.125 µg/mL (≈ 0.311 µM) in [14]; 2 µg/mL (≈ 4.98 µM) in assay [27]. Besides, the MIC in assay [16] turned out to be 4 µg/mL (≈ 9.96 µM); in assay [17] it was 4 µg/mL (≈ 9.96 µM); in assay [18], 0.25 µg/mL (≈ 0.623 µM).

The record behind these values is ChEMBL document CHEMBL1151449, “In vitro activity of DC-159a, a new broad-spectrum fluoroquinolone, compared with that of other agents against drug-susceptible and -resistant pneumococci” (2008).
